The assay has as its target Mitogen-activated protein kinase 1 (Homo sapiens) (UniProt P28482). Kind of assay: p-MAPK1 abundance shift in treated cells – DLD1 cells, chemiluminescent western blot, powder samples, counter-screen for KLF5 inhibitor project, late-stage follow-up (AID 588612). The conditions noted are these: DLD-1 cells, p-ERK1/2 western blot, 24 h; at 10 µM.
Mitogen-activated protein kinase 1 (Homo sapiens), sequence (P28482 whole entry, looked up): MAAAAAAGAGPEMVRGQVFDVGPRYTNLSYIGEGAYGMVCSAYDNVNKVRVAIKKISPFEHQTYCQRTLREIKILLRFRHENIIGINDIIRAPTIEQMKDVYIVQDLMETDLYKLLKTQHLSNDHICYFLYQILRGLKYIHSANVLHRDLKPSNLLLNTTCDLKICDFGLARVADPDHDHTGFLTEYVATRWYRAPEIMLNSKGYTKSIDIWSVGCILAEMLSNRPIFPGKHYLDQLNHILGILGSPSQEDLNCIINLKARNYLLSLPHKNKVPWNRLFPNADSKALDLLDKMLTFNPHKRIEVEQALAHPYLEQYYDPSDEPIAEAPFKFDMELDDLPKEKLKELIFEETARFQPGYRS
Turning to `CN(C(=O)CNC(=O)/C=C/c1cccc(Cl)c1)C1CCS(=O)(=O)C1` (stereo not drawn), the fold change is 9.88. In the case of `CN(C(=O)COC(=O)/C=C/c1cccc([N+](=O)[O-])c1)C1CCS(=O)(=O)C1` (stereo not drawn) it was 11.

On to `CN(C(=O)CNC(=O)/C=C/c1cccc(Cl)c1)C1CCS(=O)(=O)CC1`, for which the fold change was 9.41.
